Reference: patent US11993574B2, “Pyrazole and imidazole compounds for inhibition of IL-17 and RORgamma” (REATA PHARMACEUTICALS, INC., priority 2018, dated 2024)
pIC50: −log10 of the molar value.

Assays:
Format in all cases: cell-based
[1] = system: Nrf2 transcription factor; assay: AREc32 luciferase reporter assay; settings: Homo sapiens; AREc32 cells, 19 hours; concentration required to increase GST ARE luciferase reporter activity by 2-fold; read-out: NRF2 ARE 2-Fold (EC2×)
Description: A. AREc32 Luciferase Reporter Assay
The AREc32 luciferase reporter assay allows for quantitative assessment of the endogenous activity of the Nrt2 transcription factor in cultured mammalian cells. AREc32 cells are derived from MCF-7 human breast carcinoma cells that were stably transfected with a reporter construct that contains the firefly luciferase gene located downstream of eight copies of the rat GSTA2 antioxidant response element (ARE) sequence (Wang et al., 2006; Concept Life Sciences Integrated Discovery and Development Services Ltd (CLSIDDS)). Active Nrf2 binds to the ARE sequences and increases expression of the firefly luciferase gene. To assess the Nrf2-activating potential of the test compounds, AREc32 cells were plated in black […] plates at a density of 20,000 cells per well in triplicate in DMEM+10% FBS+0.8 mg/mL Geneticin and incubated at 37° C. with 5% CO2 in a humidified atmosphere. The next day, cells were treated with DMSO (vehicle) or test compound (concentration ranges of 0.4-200 nM or 3.9-2000 nM) for 19 hours. Luciferase activity was determined using the ONE-Glo Luciferase assay (Promega). The luminescence signal was measured on a BMG Pherastar microplate reader. The mean luminescence value from test compound-treated wells was normalized to that from DMSO-treated wells and was represented as fold-induction. Data were analyzed using GraphPad Prism version 6.00 for Windows, GraphPad Software, La Jolla Calif. USA. A non-linear regression curve with log (agonist) vs. response using a variable slope was used to fit the data. Where applicable, a maximum threshold value of 50-fold over DMSO was set. EC2× values were interpolated from the curve. EC2× corresponds to the concentration of test compound required to increase GST ARE Luciferase reporter activity by 2-fold.

[2] = target: T1, Human RAR-related Orphan Receptor Gamma (RORγ) (Homo sapiens, UniProt P51449); assay: RORγ assay (GAL4-RORγ hybrid luciferase reporter, Indigo Biosciences); settings: inverse-agonist activity, GAL4-RORγ reporter cells, 23 hours
T1 sequence (P51449 269-508 limits assumed): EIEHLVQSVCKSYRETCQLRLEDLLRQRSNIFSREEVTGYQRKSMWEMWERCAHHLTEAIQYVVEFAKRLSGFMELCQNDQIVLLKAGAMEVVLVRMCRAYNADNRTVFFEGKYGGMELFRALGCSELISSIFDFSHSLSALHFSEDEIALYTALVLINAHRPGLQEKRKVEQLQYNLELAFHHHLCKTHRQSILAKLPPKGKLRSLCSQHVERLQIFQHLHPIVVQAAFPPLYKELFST
Description: B. RORγ Assay and Cell Viability
The RORγ assay system was purchased from Indigo Biosciences. This nuclear receptor assay utilizes a human cell line that has been engineered to express a hybrid form of the Human RAR-related Orphan Receptor Gamma (RORγ) at high levels. The N-terminal DNA binding domain (DBD) of the native RORγ receptor was substituted with the yeast GAL4-DBD to generate the GAL4-RORγ hybrid nuclear receptor. The reporter cell line is transfected with a plasmid that encodes the beetle luciferase gene under the control of the GAL4 upstream activating sequence (UAS). GAL4 binds to the UAS and increases transcription of downstream target genes. The GAL4-RORγ hybrid is constitutively active; therefore, the principle application of this reporter assay system is to screen test compounds to quantify inverse-agonist activities against human RORγ. Because the ligand binding domain (LBD) of RORγ is identical to the LBD of RORγt, this assay is an accurate surrogate for evaluating activity of experimental ligands against RORγt. To assess the RORγ inverse-agonist activity of the test compounds, reporter cells were plated in white 96-well plates in triplicate and were treated with DMSO (vehicle) or test compound (concentration ranges of 7.8-2000 nM) at 37° C. with 5% CO2 in a humidified atmosphere for 23 hours. After this incubation, luciferin was added to the wells and luciferase activity was determined by measuring the luminescence signal using a BMG Pherastar microplate reader. Viability was determined using the Live Cell Multiplex Assay (Indigo Biosciences). Values from test compound samples were normalized to those from DMSO-treated samples. Data were analyzed using GraphPad Prism version 6.00 for Windows (GraphPad Software, La Jolla Calif. USA). A non-linear regression analysis with log (inhibitor) vs. normalized response using a variable slope was applied to fit the data and determine the IC50 values for inhibition of RORγ and cell viability. Inhibition that is closely correlated with reduced viability is considered to be non-specific.

[3] = system: IL-17A; assay: IL-17 release from differentiated primary human T-cells (IL-17A HTRF assay); settings: primary human CD4+ T cells differentiated into Th17 cells, 45-hour incubation, IL-17A in supernatant; read-out: hIL17 IC50
Experimental: C. IL-17 Release from Differentiated Primary Human T-Cells and Cell Viability
Primary human cryopreserved CD4+ T Cells (Lonza) were thawed according to the manufacturer's recommendations and plated either in Lymphocyte Growth Medium-3 (LGM-3) or X-VIVO 20 media (Lonza) in 96-well tissue culture plates at a density of ˜2×10^5 cells per well, and allowed to recover for approximately 4 hours at 37° C. with 5% CO2 in a humidified atmosphere. After the recovery step, DMSO (vehicle) or test compound at doses ranging from 2 to 500 nM or 4 to 1000 nM in a three-fold dilution series was added to the cells. Three replicate wells were tested for each treatment condition. Final DMSO concentration in each well was 0.1%. Immediately after treatment, CD4+ T cells were activated by adding Dynabeads Human T-Activator CD3/CD28 (Life Technologies; bead-to-cell ratio of 1:2.5) and differentiated into Th17 cells by adding a mixture of the following cytokines: transforming growth factor-β (TGF-β, 5 ng/mL), IL-6 (20 ng/mL), IL-23 (20 ng/mL), and IL-1β (10 ng/mL). Undifferentiated control cells received only cytokine IL-2 (50 ng/mL). All human recombinant cytokines were purchased from R&D Systems. Following a 45-hour incubation at 37° C. with 5% CO2 in a humidified atmosphere, the plates were centrifuged for 3 minutes at 250×g, and half of the supernatant was transferred to anew plate to be used in the IL-17A assay (see below). Cell viability was assessed in the original plate using the CyQuant Direct Assay (Life Technologies). CyQuant reagent (an amount equal to 10% of remaining media volume) was added to the wells, and the plates were then incubated at 37° C. for 75 min. Fluorescence was read on a SpectraMax M2e spectrophotometer at 480 nm (excitation) and 535 nm (emission) wavelengths. CyQuant values from test compound samples were normalized to those from DMSO-treated samples. The concentration of IL-17A in the supernatant was measured using the Homogeneous Time-Resolved Fluorescence (HTRF) assay (Cisbio Bioassays) according to the manufacturer's protocol. The assay was performed at room temperature in low volume, solid white 384-well plates (Greiner Bio-One). Samples and standards (serially-diluted human recombinant IL-17A (0 to 5,000 pg/mL concentration range; Cisbio Bioassays) were incubated with the anti-human IL-17A antibody conjugates (the HTRF donor and acceptor pair) for 16 hours and fluorescence was measured using a Pherastar FS microplate reader (BMG Labtech) in the HTRF mode (excitation at 337 nm and emission at 665 nm and 620 nm). IL-17A levels were assessed in duplicate aliquots of supernatant from each well resulting in a total of six readings per test condition. The 665 nm/620 nm signal ratio was calculated and the concentration of IL-17A in each sample was determined by interpolation from the standard curve. The amount of IL-17A from test compound treated samples were normalized to that of the vehicle-treated samples, set to 100%. Data were analyzed using GraphPad Prism (GraphPad Software, La Jolla California USA). Concentrations of test compound were transformed by taking the logarithm of each concentration used. The IC50 values for compound-mediated reduction in IL-17A levels and cell viability were determined by non-linear regression analysis using the log(inhibitor) vs. normalized response with variable slope equation. Inhibition that is closely correlated with reduced viability is considered to be non-specific.

Row | Compound | EC (2-fold) [1] [µM] | pIC50 [2] | pIC50 [3]
1 | C[C@H]1C(=O)C(C#N)=C[C@@]2(C)c3nn(C4CCCCC4)c(-c4ccccc4)c3CC[C@H]12 [T1] | 1.45 | 6.76 | 7.19
2 | C[C@H]1C(=O)C(C#N)=C[C@@]2(C)c3c(c(-c4ccccc4)nn3C3CCCCC3)CC[C@H]12 [T2] | 0.66 | 7.01 | 7.08
3 | C[C@H]1C(=O)C(C#N)=C[C@@]2(C)c3c(c(-c4ccccc4)nn3CC(F)(F)F)CC[C@H]12 [T3] | 1.46 | 6.56 | 7.04
4 | C[C@H]1C(=O)C(C#N)=C[C@@]2(C)c3nn(Cc4ccccc4)c(-c4ccccc4)c3CC[C@H]12 [T4] | 0.914 | 6.85 | 6.65
5 | C[C@H]1C(=O)C(C#N)=C[C@@]2(C)c3c(c(-c4ccccc4)nn3Cc3ccccc3)CC[C@H]12 [T5] | 0.587 | 6.87 | 6.92
6 | C[C@H]1C(=O)C(C#N)=C[C@@]2(C)c3c(c(-c4ccccc4)nn3-c3ccc(C(F)(F)F)cc3)CC[C@H]12 [T6] | 0.242 | 7.04 | 7.46
7 | C[C@H]1C(=O)C(C#N)=C[C@@]2(C)c3c(c(-c4ccccc4)nn3-c3ccncc3)CC[C@H]12 [T7] | 0.265 | 6.80 | 6.77
8 | C[C@H]1C(=O)C(C#N)=C[C@@]2(C)c3c(c(-c4ccccc4)nn3-c3ccnc4ccccc34)CC[C@H]12 [T8] | 0.426 | 7.09 | 7.14
9 | C[C@H]1C(=O)C(C#N)=C[C@@]2(C)c3c(c(-c4ccccc4)nn3-c3ccccc3F)CC[C@H]12 [T9] | 0.122 | 7.20 | 6.90
10 | C[C@H]1C(=O)C(C#N)=C[C@@]2(C)c3c(c(-c4ccccc4)nn3-c3ccc(Cl)c(Cl)c3)CC[C@H]12 [T10] | 0.26 | 7.06 | 7.11
11 | C[C@H]1C(=O)C(C#N)=C[C@@]2(C)c3c(c(-c4ccccc4)nn3-c3ccccc3)CC[C@H]12 [T11] | 0.107 | 7.14 | 6.95
12 | Cc1ccc(-n2nc(-c3ccccc3)c3c2[C@]2(C)C=C(C#N)C(=O)[C@H](C)[C@H]2CC3)cc1 [T12] | 0.135 | 7.26 | 7.12
13 | C[C@H]1C(=O)C(C#N)=C[C@@]2(C)c3c(c(-c4ccccc4)nn3-c3ccc(Cl)cc3)CC[C@H]12 [T13] | 0.274 | 6.89 | 7.02
14 | COc1ccc(-n2nc(-c3ccccc3)c3c2[C@]2(C)C=C(C#N)C(=O)[C@H](C)[C@H]2CC3)cc1 [T14] | 0.147 | 7.22 | 7.24
15 | Cc1ccccc1-n1nc(-c2ccccc2)c2c1[C@]1(C)C=C(C#N)C(=O)[C@H](C)[C@H]1CC2 [T17] | 0.105 | 7.11 | 7.03
16 | Cc1ccccc1-n1nc2c(c1-c1ccccc1)CC[C@@H]1[C@@H](C)C(=O)C(C#N)=C[C@@]21C [T18] | 0.741 | 6.94 | 6.74
17 | C[C@H]1C(=O)C(C#N)=C[C@@]2(C)c3c(c(-c4ccccc4)nn3-c3ccc(OC(F)(F)F)cc3)CC[C@H]12 [T19] | 0.247 | 7.07 | 7.49
18 | C[C@H]1C(=O)C(C#N)=C[C@@]2(C)c3nn(-c4ccc(OC(F)(F)F)cc4)c(-c4ccccc4)c3CC[C@H]12 [T20] | 0.927 | 6.94 | 7.03
19 | C[C@H]1C(=O)C(C#N)=C[C@@]2(C)c3c(c(-c4ccccc4)nn3C3CCS(=O)(=O)C3)CC[C@H]12 (some centres unmarked) [T29] | 0.837 | 6.33 | –
20 | C[C@H]1C(=O)C(C#N)=C[C@@]2(C)c3nn(C4CCS(=O)(=O)C4)c(-c4ccccc4)c3CC[C@H]12 (some centres unmarked) [T30] | 0.462 | 6.84 | –
21 | C[C@H]1C(=O)C(C#N)=C[C@@]2(C)c3c(c(-c4ccccc4)nn3-c3cccc(Br)c3)CC[C@H]12 [T33] | 0.29 | 7.05 | –
22 | C[C@H]1C(=O)C(C#N)=C[C@@]2(C)c3c(c(-c4ccccc4)nn3-c3ccc(C(=O)O)cc3)CC[C@H]12 [T52] | > 2 | < 5.70 | –
23 | C[C@H]1C(=O)C(C#N)=C[C@@]2(C)c3c(c(-c4ccncn4)nn3-c3ccc(C4CC4)cn3)CC[C@H]12 [T62] | 0.691 | 6.55 | –
24 | C[C@H]1C(=O)C(C#N)=C[C@@]2(C)c3nc(-c4ccccc4)n(-c4nnn(C)n4)c3CC[C@H]12 [T111] | 0.59 | 6.11 | –
25 | C[C@H]1C(=O)C(C#N)=C[C@@]2(C)c3nc(-c4ccncc4)n(-c4ccccc4)c3CC[C@H]12 [T112] | 0.563 | 6.58 | –
